Reference: BindingDB's records for patent WO2025049746 (Eikon Therapeutics, 2025)

Experiments:
[1] = molecular target: T1, Bifunctional 3'-5' exonuclease/ATP-dependent helicase WRN [480-1251] (UniProt Q14191); assay: Biochemical Activity Assays
T1 construct: 480-1251

[2] = molecular target: Bifunctional 3'-5' exonuclease/ATP-dependent helicase WRN (Homo sapiens, UniProt Q14191); assay: ADP-Glo Kinase Assay
Description: ATPase activity was measured using the ADP-Glo Kinase Assay following the manufacturers recommended protocol.

T1 sequence (Q14191 480-1251): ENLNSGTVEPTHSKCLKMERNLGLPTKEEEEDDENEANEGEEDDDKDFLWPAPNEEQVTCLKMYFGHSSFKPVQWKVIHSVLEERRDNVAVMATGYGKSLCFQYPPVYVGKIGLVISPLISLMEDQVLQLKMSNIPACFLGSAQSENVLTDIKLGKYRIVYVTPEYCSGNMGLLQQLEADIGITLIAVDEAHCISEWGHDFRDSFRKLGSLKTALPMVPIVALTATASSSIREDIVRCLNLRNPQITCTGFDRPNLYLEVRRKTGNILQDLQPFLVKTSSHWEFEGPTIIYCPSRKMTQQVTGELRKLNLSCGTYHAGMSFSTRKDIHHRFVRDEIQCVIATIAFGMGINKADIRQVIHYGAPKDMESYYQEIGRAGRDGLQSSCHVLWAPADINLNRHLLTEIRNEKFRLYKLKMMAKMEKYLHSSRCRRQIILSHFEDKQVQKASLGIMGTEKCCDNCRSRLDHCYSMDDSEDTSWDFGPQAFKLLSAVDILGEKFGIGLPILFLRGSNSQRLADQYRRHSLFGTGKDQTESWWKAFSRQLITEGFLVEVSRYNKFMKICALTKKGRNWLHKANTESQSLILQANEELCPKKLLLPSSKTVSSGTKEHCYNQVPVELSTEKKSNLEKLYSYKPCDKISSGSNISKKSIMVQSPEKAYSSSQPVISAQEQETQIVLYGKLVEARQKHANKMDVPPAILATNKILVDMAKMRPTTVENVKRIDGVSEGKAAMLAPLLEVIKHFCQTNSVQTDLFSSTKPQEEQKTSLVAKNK
Bifunctional 3'-5' exonuclease/ATP-dependent helicase WRN, sequence (Q14191 whole entry): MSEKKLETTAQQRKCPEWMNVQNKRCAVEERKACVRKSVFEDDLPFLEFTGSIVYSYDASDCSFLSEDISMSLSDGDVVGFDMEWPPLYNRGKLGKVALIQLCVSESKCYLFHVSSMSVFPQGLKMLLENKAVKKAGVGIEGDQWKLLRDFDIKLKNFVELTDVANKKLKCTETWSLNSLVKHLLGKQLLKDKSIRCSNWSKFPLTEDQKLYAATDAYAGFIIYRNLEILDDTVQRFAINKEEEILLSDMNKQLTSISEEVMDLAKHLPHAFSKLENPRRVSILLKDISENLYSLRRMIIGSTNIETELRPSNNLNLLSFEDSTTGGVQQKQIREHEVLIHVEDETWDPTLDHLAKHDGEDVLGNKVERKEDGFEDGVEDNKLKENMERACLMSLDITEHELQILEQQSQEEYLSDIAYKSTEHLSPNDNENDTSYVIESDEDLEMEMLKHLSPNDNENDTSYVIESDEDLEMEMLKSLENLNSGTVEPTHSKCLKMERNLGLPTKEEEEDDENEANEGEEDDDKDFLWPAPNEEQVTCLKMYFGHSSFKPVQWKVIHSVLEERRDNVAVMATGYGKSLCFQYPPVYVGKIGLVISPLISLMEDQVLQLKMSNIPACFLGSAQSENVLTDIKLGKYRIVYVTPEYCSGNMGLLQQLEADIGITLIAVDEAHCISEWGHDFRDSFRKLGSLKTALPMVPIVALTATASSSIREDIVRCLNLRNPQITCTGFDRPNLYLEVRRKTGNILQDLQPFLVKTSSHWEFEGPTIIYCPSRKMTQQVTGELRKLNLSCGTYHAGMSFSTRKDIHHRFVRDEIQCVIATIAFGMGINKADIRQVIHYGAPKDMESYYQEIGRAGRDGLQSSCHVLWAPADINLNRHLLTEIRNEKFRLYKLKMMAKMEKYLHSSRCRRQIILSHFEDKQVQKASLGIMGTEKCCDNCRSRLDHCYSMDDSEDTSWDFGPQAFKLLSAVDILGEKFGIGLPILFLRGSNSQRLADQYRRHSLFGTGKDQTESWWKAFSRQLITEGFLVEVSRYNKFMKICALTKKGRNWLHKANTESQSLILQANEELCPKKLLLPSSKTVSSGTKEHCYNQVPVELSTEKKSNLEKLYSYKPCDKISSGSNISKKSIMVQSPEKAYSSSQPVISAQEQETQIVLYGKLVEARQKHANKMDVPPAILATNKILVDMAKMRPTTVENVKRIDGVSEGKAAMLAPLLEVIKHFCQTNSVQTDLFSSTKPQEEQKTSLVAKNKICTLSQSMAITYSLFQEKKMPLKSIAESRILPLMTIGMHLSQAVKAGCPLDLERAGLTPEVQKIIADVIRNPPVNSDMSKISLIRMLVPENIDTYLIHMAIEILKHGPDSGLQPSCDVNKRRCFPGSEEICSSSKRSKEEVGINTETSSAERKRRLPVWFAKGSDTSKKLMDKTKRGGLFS

SMILES	IC50 [1]	IC50 [2]
CCc1c(N2CCN(C(=O)c3ncnc(C)c3O)CC2)c(=O)n2nc(-c3ccn4nc(F)cc4c3)nc2n1CC(=O)Nc1ccc(C(F)(F)F)cc1Cl [WO2025049746, Example 251]	25 nM	26 nM
CCc1c(N2CCN(C(=O)c3ncnc(C)c3O)CC2)c(=O)n2nc(-c3cnc4c(ccn4C)c3)nc2n1CC(=O)Nc1ccc(C(F)(F)F)cc1Cl [WO2025049746, Example 252]	21 nM	19 nM
CCc1c(N2CCN(C(=O)c3ncnc(C)c3O)CC2)c(=O)n2nc(-c3ccc4ccnn4c3)nc2n1CC(=O)Nc1ccc(C(F)(F)F)cc1Cl [WO2025049746, Example 253]	24 nM	24 nM
CCc1c(N2CCN(C(=O)c3ncnc(C)c3O)CC2)c(=O)n2nc(-c3ccc4c(c3)ncn4C)nc2n1CC(=O)Nc1ccc(C(F)(F)F)cc1Cl [WO2025049746, Example 254]	24 nM	25 nM
CCc1c(N2CCN(C(=O)c3ncnc(C)c3O)CC2)c(=O)n2nc(-c3ccc4nc(C)cn4c3)nc2n1CC(=O)Nc1ccc(C(F)(F)F)cc1Cl [WO2025049746, Example 255]	24 nM	23 nM
CCc1c(N2CCN(C(=O)c3ncnc(C)c3O)CC2)c(=O)n2nc(-c3cc4cn(C)nc4cc3F)nc2n1CC(=O)Nc1ccc(C(F)(F)F)cc1Cl [WO2025049746, Example 256]	22 nM	23 nM
CCc1c(N2CCN(C(=O)c3ncnc(C)c3O)CC2)c(=O)n2nc(-c3ccc4c(c3)CSC4)nc2n1CC(=O)Nc1ccc(C(F)(F)F)cc1Cl [WO2025049746, Example 257]	30 nM	28 nM
CCc1c(N2CCN(C(=O)c3ncnc(C)c3O)CC2)c(=O)n2nc(-c3ccc4n[nH]cc4c3)nc2n1CC(=O)Nc1ccc(C(F)(F)F)cc1Cl [WO2025049746, Example 258]	15 nM	16 nM
CCc1c(N2CCN(C(=O)c3ncnc(C)c3O)CC2)c(=O)n2nc(-c3ccc4ncn(C)c(=O)c4c3)nc2n1CC(=O)Nc1ccc(C(F)(F)F)cc1Cl [WO2025049746, Example 259]	29 nM	29 nM
CCc1c(N2CCN(C(=O)c3ncnc(C)c3O)CC2)c(=O)n2nc(-c3cc4c(cc3F)COCC4)nc2n1CC(=O)Nc1ccc(C(F)(F)F)cc1Cl [WO2025049746, Example 260]	21 nM	22 nM
CCc1c(N2CCN(C(=O)c3ncnc(C)c3O)CC2)c(=O)n2nc(-c3ccc4c(c3)CN(C)C4(C)C)nc2n1CC(=O)Nc1ccc(C(F)(F)F)cc1Cl [WO2025049746, Example 261]	33 nM	31 nM
CCc1c(N2CCN(C(=O)c3ncnc(C)c3O)CC2)c(=O)n2nc(-c3ccc4nn(C(C)C)cc4c3)nc2n1CC(=O)Nc1ccc(C(F)(F)F)cc1Cl [WO2025049746, Example 262]	31 nM	30 nM
CCc1c(N2CCN(C(=O)c3ncnc(C)c3O)CC2)c(=O)n2nc(-c3ccc4ncncc4c3)nc2n1CC(=O)Nc1ccc(C(F)(F)F)cc1Cl [WO2025049746, Example 263]	23 nM	24 nM
CCc1c(N2CCN(C(=O)c3ncnc(C)c3O)CC2)c(=O)n2nc(-c3ccc4ncccc4c3)nc2n1CC(=O)Nc1ccc(C(F)(F)F)cc1Cl [WO2025049746, Example 264]	24 nM	23 nM
CCc1c(N2CCN(C(=O)c3ncnc(C)c3O)CC2)c(=O)n2nc(-c3ccc4conc4c3)nc2n1CC(=O)Nc1ccc(C(F)(F)F)cc1Cl [WO2025049746, Example 265]	40 nM	40 nM
CCc1c(N2CCN(C(=O)c3ncnc(C)c3O)CC2)c(=O)n2nc(-c3ccc4nscc4c3)nc2n1CC(=O)Nc1ccc(C(F)(F)F)cc1Cl [WO2025049746, Example 266]	22 nM	22 nM
CCc1c(N2CCN(C(=O)c3ncnc(C)c3O)CC2)c(=O)n2nc(-c3ccc(C(=O)N4CCCC4)cc3)nc2n1CC(=O)Nc1ccc(C(F)(F)F)cc1Cl [WO2025049746, Example 267]	23 nM	26 nM
CCc1c(N2CCN(C(=O)c3ncnc(C)c3O)CC2)c(=O)n2nc(-c3ccccc3C(=O)NC3CC3)nc2n1CC(=O)Nc1ccc(C(F)(F)F)cc1Cl [WO2025049746, Example 269]	63 nM	61 nM
CCc1c(N2CCN(C(=O)c3ncnc(C)c3O)CC2)c(=O)n2nc(-c3ccc(S(=O)(=O)N4CCC4)cc3)nc2n1CC(=O)Nc1ccc(C(F)(F)F)cc1Cl [WO2025049746, Example 270]	18 nM	19 nM
CCc1c(N2CCN(C(=O)c3ncnc(C)c3O)CC2)c(=O)n2nc(-c3ccc4c(c3)CC(=O)N4C)nc2n1CC(=O)Nc1ccc(C(F)(F)F)cc1Cl [WO2025049746, Example 271]	35 nM	28 nM
CCc1c(N2CCN(C(=O)c3ncnc(C)c3O)CC2)c(=O)n2nc(-c3ccn4ncc(C)c4c3)nc2n1CC(=O)Nc1ccc(C(F)(F)F)cc1Cl [WO2025049746, Example 272]	28 nM	27 nM

SMILES	IC50 [1]	IC50 [2]
CCc1c(N2CCN(C(=O)c3ncnc(C)c3O)CC2)c(=O)n2nc(-c3cc4c(cc3F)C3(CN(C)C3)OC4)nc2n1CC(=O)Nc1ccc(C(F)(F)F)cc1Cl [WO2025049746, Example 273]	48 nM	43 nM
CCc1c(N2CCN(C(=O)c3ncnc(C)c3O)CC2)c(=O)n2nc(-c3ccc4c(c3)CO[C@H]4C(F)(F)F)nc2n1CC(=O)Nc1ccc(C(F)(F)F)cc1Cl [WO2025049746, Example 274]	554 nM	493 nM
CCc1c(N2CCN(C(=O)c3ncnc(C)c3O)CC2)c(=O)n2nc(-c3ccc4c(c3)[C@@H](C(F)(F)F)OC4)nc2n1CC(=O)Nc1ccc(C(F)(F)F)cc1Cl [WO2025049746, Example 275]	92 nM	79 nM
CCc1c(N2CCN(C(=O)c3ncnc(C)c3O)CC2)c(=O)n2nc(-c3ccc4c(c3)CO[C@@H]4C(F)(F)F)nc2n1CC(=O)Nc1ccc(C(F)(F)F)cc1Cl [WO2025049746, Example 276]	85 nM	72 nM
CCc1c(N2CCN(C(=O)c3ncnc(C)c3O)CC2)c(=O)n2nc(-c3ccc4c(c3)[C@H](C(F)(F)F)OC4)nc2n1CC(=O)Nc1ccc(C(F)(F)F)cc1Cl [WO2025049746, Example 277]	173 nM	176 nM
CCc1c(N2CCN(C(=O)c3ncnc(C)c3O)CC2)c(=O)n2nc(-c3ccc4c(c3)COC43COC3)nc2n1CC(=O)Nc1ccc(C(F)(F)F)cc1Cl [WO2025049746, Example 278]	36 nM	31 nM
CCc1c(N2CCN(C(=O)c3ncnc(C)c3O)CC2)c(=O)n2nc(-c3ccc4c(c3)CS(=O)(=O)N4C)nc2n1CC(=O)Nc1ccc(C(F)(F)F)cc1Cl [WO2025049746, Example 279]	29 nM	26 nM
CCc1c(N2CCN(C(=O)c3ncnc(C)c3O)CC2)c(=O)n2nc(-c3ccc4nccnc4c3)nc2n1CC(=O)Nc1ccc(C(F)(F)F)cc1Cl [WO2025049746, Example 280]	31 nM	28 nM
CCc1c(N2CCN(C(=O)c3ncnc(C)c3O)CC2)c(=O)n2nc(-c3ccc4c(c3)OCCN4)nc2n1CC(=O)Nc1ccc(C(F)(F)F)cc1Cl [WO2025049746, Example 281]	31 nM	27 nM
CCc1c(N2CCN(C(=O)c3ncnc(C)c3O)CC2)c(=O)n2nc(-c3cnc4nc(C)oc4c3)nc2n1CC(=O)Nc1ccc(C(F)(F)F)cc1Cl [WO2025049746, Example 282]	53 nM	47 nM
CCc1c(N2CCN(C(=O)c3ncnc(C)c3O)CC2)c(=O)n2nc(-c3ccc4occc4c3)nc2n1CC(=O)Nc1ccc(C(F)(F)F)cc1Cl [WO2025049746, Example 283]	37 nM	33 nM
CCc1c(N2CCN(C(=O)c3ncnc(C)c3O)CC2)c(=O)n2nc(-c3ccc4nc(N)oc4c3)nc2n1CC(=O)Nc1ccc(C(F)(F)F)cc1Cl [WO2025049746, Example 284]	26 nM	25 nM
CCc1c(N2CCN(C(=O)c3ncnc(C)c3O)CC2)c(=O)n2nc(-c3ccc4nc(C)sc4c3)nc2n1CC(=O)Nc1ccc(C(F)(F)F)cc1Cl [WO2025049746, Example 285]	29 nM	26 nM
CCc1c(N2CCN(C(=O)c3ncnc(C)c3O)CC2)c(=O)n2nc(-c3cc(OC)c4nn(C)cc4c3)nc2n1CC(=O)Nc1ccc(C(F)(F)F)cc1Cl [WO2025049746, Example 286]	38 nM	35 nM
CCc1c(N2CCN(C(=O)c3ncnc(C)c3O)CC2)c(=O)n2nc(-c3cc(F)c4nn(C)cc4c3)nc2n1CC(=O)Nc1ccc(C(F)(F)F)cc1Cl [WO2025049746, Example 287]	29 nM	28 nM
CCc1c(N2CCN(C(=O)c3ncnc(C)c3O)CC2)c(=O)n2nc(-c3ccc4scnc4c3)nc2n1CC(=O)Nc1ccc(C(F)(F)F)cc1Cl [WO2025049746, Example 288]	43 nM	40 nM
CCc1c(N2CCN(C(=O)c3ncnc(C)c3O)CC2)c(=O)n2nc(-c3ccc4c(c3)COC43CCOCC3)nc2n1CC(=O)Nc1ccc(C(F)(F)F)cc1Cl [WO2025049746, Example 289]	56 nM	53 nM
CCc1c(N2CCN(C(=O)c3ncnc(C)c3O)CC2)c(=O)n2nc(-c3ccc4nn(C)c(F)c4c3)nc2n1CC(=O)Nc1ccc(C(F)(F)F)cc1Cl [WO2025049746, Example 290]	31 nM	29 nM
CCc1c(N2CCN(C(=O)c3ncnc(C)c3O)CC2)c(=O)n2nc(-c3cc4cn(C(F)F)nc4cc3F)nc2n1CC(=O)Nc1ccc(C(F)(F)F)cc1Cl [WO2025049746, Example 291]	31 nM	30 nM
CCc1c(N2CCN(C(=O)c3ncnc(C)c3O)CC2)c(=O)n2nc(-c3ccc4nn(CC(F)F)cc4c3)nc2n1CC(=O)Nc1ccc(C(F)(F)F)cc1Cl [WO2025049746, Example 292]	29 nM	28 nM
CCc1c(N2CCN(C(=O)c3ncnc(C)c3O)CC2)c(=O)n2nc(-c3ccc4c(cnn4CC(F)F)c3)nc2n1CC(=O)Nc1ccc(C(F)(F)F)cc1Cl [WO2025049746, Example 293]	34 nM	33 nM
